From patent EP3186387B1, “METHOD OF DETERMINING THE ACTIVITY OF ENZYMES CONVERTING CYTOSINE DERIVATIVES TO URACIL DERIVATIVES IN CELLS, TISSUES AND ORGANISMS” (Univerzita Palackého v Olomouci, priority 2014, dated 2016)

Test system: HeLa cells
Assay: Determination of the deamination activity in adherent HeLa cells: signal of EdU/EdC in DNA, detected by anti-bromodeoxyuridine antibody or click reaction
Assay type: cell-based, Human
Conditions: for ratios of EC50 in EdU and EdC (KEdU½/KEdC½): two hours of incubation, without FdU
Excerpt: • Figure 1 The metabolism of EdC and EdCMP from the perspective of the deamination activity of some known deaminases in human cells. CDA - 2'-deoxycytidine/cytidine deaminase; dCK - 2'-deoxycytidine kinase; dCMPDA - 2'-deoxycytidine-5'-phosphate deaminase; cdN and mdN - cytosolic and mitochondrial pyrimidine specific 5'-deoxynucleotidase • Figure 2: Schematic depiction of determination of the activity of the enzymes transforming cytosine derivatives into uracil derivatives. • Figure 3: Determination of the deamination activity in HeLa cells using specific antibodies or using a click reaction (Example 1). The figure depicts the dependence of the average intensity of the signals on the used concentrations of EdU or EdC after two hours of incubation with various concentrations of EdU or EdC without the addition of FdU. Two methods were used for the detection of both modified nucleosides: A) detection with a click reaction with an azido dye (Alexa Fluor 488- azide); B) detection using primary anti-bromodeoxyuridine antibody and secondary antibody conjugated with Alexa Fluor 488. The measured intensities of the signals were processed in the Sigma Plot software, in which the curve was constructed and the half of maximal effective concentration (EC50) was determined. It is clear from the course of the graphs that EdC is not likely to be incorporated in the DNA. This was confirmed also by the mutual ratios between the measured values of the intensities obtained by the antibodies and by the click reaction. These ratios were 1.099 for EdU and 1.060 for EdC. […] For the determination, it is also possible to use other measured concentrations, because there was no saturation of the signal even at higher concentrations. • Figure 4 Time curve (Example 1). […] The incorporated nucleosides were detected using a click reaction with azidofluorochrome. • Figure 5: The comparison of the incorporation of FU and FC into HeLa cells when using various concentrations (Example 1). […] EdU was detected with antibodies. […]

Compound: C#Cc1cn([C@H]2C[C@H](O)[C@@H](CO)O2)c(=O)nc1N [EdC, 5-ethynyl-2'-deoxycytidine]
- concentration of EdU providing approximately such a signal as 5 µmol.l^-1 EdC (EdC around 5 µmol.l^-1, not in the saturation area): ~0.55 µmol/L
- ratios of EC50 in EdU and EdC (KEdU½/KEdC½) (detection performed by the antibodies): 0.23
- ratios of EC50 in EdU and EdC (KEdU½/KEdC½) (detection performed by the click reaction): 0.32
